Source: paper PMC5218480 (PLoS ONE, 2017)

Test system: MV-4-11 cells
Test: Gene expression microarray analysis (Affymetrix PrimeView) and GSEA
Format: cell-based, human
Design: RFU PODN (11730768_x_at) / Fold change /veh PODN (11730768_x_at) / RFU LINC00158 (11744669_a_at) / Fold change /veh LINC00158 (11744669_a_at) / RFU DUSP10 (11751237_a_at) / Fold change /veh DUSP10 (11751237_a_at) / RFU ID3 (11757404_x_at) / Fold change /veh ID3 (11757404_x_at) / RFU PLEKHG5 (11737974_s_at) / Fold change /veh PLEKHG5 (11737974_s_at) / RFU LRRC4B (11730491_at) / Fold change /veh LRRC4B (11730491_at) / RFU GIMAP4 (11747438_a_at) / Fold change /veh GIMAP4 (11747438_a_at) / RFU KRT8 (11758183_x_at) / Fold change /veh KRT8 (11758183_x_at) / RFU CNN1 (11734310_a_at) / Fold change /veh CNN1 (11734310_a_at) / RFU VPS37D (11726825_at) / Fold change /veh VPS37D (11726825_at) / RFU C10orf10 (11716522_x_at) / Fold change /veh C10orf10 (11716522_x_at) / RFU KIR2DL2 /// KIR2DL4 /// KIR2DL5A /// KIR2DL5B /// KIR2DS1 /// KIR2DS2 /// KIR2DS3 /// KIR2DS4 /// KIR3DL3 /// KIR3DL3 /// KIR3DS1 (11738374_at) / Fold change /veh KIR2DL2 /// KIR2DL4 /// KIR2DL5A /// KIR2DL5B /// KIR2DS1 /// KIR2DS2 /// KIR2DS3 /// KIR2DS4 /// KIR3DL3 /// KIR3DL3 /// KIR3DS1 (11738374_at) / RFU C1QL1 (11718748_at) / Fold change /veh C1QL1 (11718748_at) / RFU TMPRSS4 (11747572_a_at) / Fold change /veh TMPRSS4 (11747572_a_at) / RFU HAMP (11756126_x_at) / Fold change /veh HAMP (11756126_x_at) / RFU RNFT2 (11725882_a_at) / Fold change /veh RNFT2 (11725882_a_at) / RFU NR4A2 (11747474_a_at) / Fold change /veh NR4A2 (11747474_a_at) / RFU ABCC12 (11746883_a_at) / Fold change /veh ABCC12 (11746883_a_at) / RFU TMEM136 (11760407_x_at) / Fold change /veh TMEM136 (11760407_x_at) / RFU CLDN22 /// WWC2 (11732394_at) / Fold change /veh CLDN22 /// WWC2 (11732394_at) / RFU HLA-DPB1 (11760878_x_at) / Fold change /veh HLA-DPB1 (11760878_x_at) / RFU SPINT1 (11716480_a_at) / Fold change /veh SPINT1 (11716480_a_at) / RFU GAP43 (11754022_s_at) / Fold change /veh GAP43 (11754022_s_at) / RFU A4GNT (11735810_at) / Fold change /veh A4GNT (11735810_at) / RFU PRB3 (11715151_x_at) / Fold change /veh PRB3 (11715151_x_at) / RFU TUBB4B (11761932_at) / Fold change /veh TUBB4B (11761932_at) / RFU CAPN14 (11732068_a_at) / Fold change /veh CAPN14 (11732068_a_at) / RFU TMCC2 (11721928_a_at) / Fold change /veh TMCC2 (11721928_a_at) / RFU IRGQ (11745062_a_at) / Fold change /veh IRGQ (11745062_a_at) / RFU FAM174B (11720279_a_at) / Fold change /veh FAM174B (11720279_a_at) / RFU TMPRSS4 (11748680_a_at) / Fold change /veh TMPRSS4 (11748680_a_at) / RFU FAM212B (11763350_a_at) / Fold change /veh FAM212B (11763350_a_at) / RFU PLEKHG5 (11743358_a_at) / Fold change /veh PLEKHG5 (11743358_a_at) / RFU ZSCAN30 (11745921_a_at) / Fold change /veh ZSCAN30 (11745921_a_at) / RFU CMKLR1 (11741424_a_at) / Fold change /veh CMKLR1 (11741424_a_at) / RFU LOC101060620 /// MAPK8IP1 (11723275_at) / Fold change /veh LOC101060620 /// MAPK8IP1 (11723275_at) / RFU SPTSSB (11747773_x_at) / Fold change /veh SPTSSB (11747773_x_at) / RFU PRSS12 (11739890_at) / Fold change /veh PRSS12 (11739890_at) / RFU BIN1 (11741810_x_at) / Fold change /veh BIN1 (11741810_x_at) / RFU WNT11 (11732464_a_at) / Fold change /veh WNT11 (11732464_a_at) / RFU C10orf10 (11716521_a_at) / Fold change /veh C10orf10 (11716521_a_at) / RFU C5orf56 (11738089_at) / Fold change /veh C5orf56 (11738089_at) / RFU CYB561 (11721691_x_at) / Fold change /veh CYB561 (11721691_x_at) / RFU ANKRD19P (11752326_a_at) / Fold change /veh ANKRD19P (11752326_a_at) / RFU OR2T12 /// OR2T33 /// OR2T8 (11738714_s_at) / Fold change /veh OR2T12 /// OR2T33 /// OR2T8 (11738714_s_at) / RFU VCAN (11748164_a_at) / Fold change /veh VCAN (11748164_a_at) / RFU JSRP1 (11732532_at) / Fold change /veh JSRP1 (11732532_at) / RFU KRTAP10-11 (11738290_x_at) / Fold change /veh KRTAP10-11 (11738290_x_at) / RFU MYO3A (11730013_a_at) / Fold change /veh MYO3A (11730013_a_at) / RFU EBF3 (11725865_a_at) / Fold change /veh EBF3 (11725865_a_at) / RFU CAMK2N1 (11719241_x_at) / Fold change /veh CAMK2N1 (11719241_x_at) / RFU C5orf56 (11738088_a_at) / Fold change /veh C5orf56 (11738088_a_at) / RFU OLFML3 (11715873_a_at) / Fold change /veh OLFML3 (11715873_a_at) / RFU LOC100653217 /// NTM (11731650_a_at) / Fold change /veh LOC100653217 /// NTM (11731650_a_at) / RFU MAPK11 (11762145_a_at) / Fold change /veh MAPK11 (11762145_a_at) / RFU FIZ1 (11724087_x_at) / Fold change /veh FIZ1 (11724087_x_at) / RFU OASL (11726364_x_at) / Fold change /veh OASL (11726364_x_at) / RFU SOX15 (11748057_x_at) / Fold change /veh SOX15 (11748057_x_at) / RFU CD79A (11719716_a_at) / Fold change /veh CD79A (11719716_a_at) / RFU HIST1H1D (11736915_at) / Fold change /veh HIST1H1D (11736915_at) / RFU CASKIN2 (11723855_a_at) / Fold change /veh CASKIN2 (11723855_a_at) / RFU LOC730098 (11760151_x_at) / Fold change /veh LOC730098 (11760151_x_at) / RFU OR4N2 (11742367_at) / Fold change /veh OR4N2 (11742367_at) / RFU PRRT2 (11749266_a_at) / Fold change /veh PRRT2 (11749266_a_at) / RFU SNX32 (11753110_a_at) / Fold change /veh SNX32 (11753110_a_at) / RFU CDHR5 (11726645_a_at) / Fold change /veh CDHR5 (11726645_a_at) / RFU RCAN1 (11760418_a_at) / Fold change /veh RCAN1 (11760418_a_at) / RFU FAM167A (11723789_a_at) / Fold change /veh FAM167A (11723789_a_at) / RFU FAM26E (11764081_at) / Fold change /veh FAM26E (11764081_at) / RFU ISYNA1 (11749810_s_at) / Fold change /veh ISYNA1 (11749810_s_at) / RFU ACY1 (11761880_at) / Fold change /veh ACY1 (11761880_at) / RFU 11764098_at / Fold change /veh 11764098_at / RFU SAMD14 (11745864_x_at) / Fold change /veh SAMD14 (11745864_x_at) / RFU NPB (11741838_a_at) / Fold change /veh NPB (11741838_a_at) / RFU TMPRSS6 (11731388_a_at) / Fold change /veh TMPRSS6 (11731388_a_at) / RFU KRTAP10-2 (11738614_at) / Fold change /veh KRTAP10-2 (11738614_at) / RFU ARHGAP8 /// PRR5-ARHGAP8 (11727945_x_at) / Fold change /veh ARHGAP8 /// PRR5-ARHGAP8 (11727945_x_at) / RFU KRTAP5-7 /// NADSYN1 (11734609_at) / Fold change /veh KRTAP5-7 /// NADSYN1 (11734609_at) / RFU RASL12 (11751679_a_at) / Fold change /veh RASL12 (11751679_a_at) / RFU CDKN2B (11736163_a_at) / Fold change /veh CDKN2B (11736163_a_at) / RFU PRF1 (11729649_at) / Fold change /veh PRF1 (11729649_at) / RFU, ZNF638 /// ZNF638-IT1 / Fold change vs veh, ZNF638 /// ZNF638-IT1 / RFU, PANK3 / Fold change vs veh, PANK3 / RFU, SH3YL1 / Fold change vs veh, SH3YL1 / RFU, ZEB2 / Fold change vs veh, ZEB2 / RFU, NRIP1 / Fold change vs veh, NRIP1 / RFU, PTTG1IP / Fold change vs veh, PTTG1IP / RFU, CAPN2 / Fold change vs veh, CAPN2 / RFU, MED14 / Fold change vs veh, MED14 / RFU, SNORA58 / Fold change vs veh, SNORA58 / RFU, C1orf63 / Fold change vs veh, C1orf63 / RFU, LRRFIP1 / Fold change vs veh, LRRFIP1 / RFU, NDUFAF7 / Fold change vs veh, NDUFAF7 / RFU, SLC12A2 / Fold change vs veh, SLC12A2 / RFU, IBTK / Fold change vs veh, IBTK / RFU, ESF1 / Fold change vs veh, ESF1 / Fold change vs veh, TMEM50B / RFU, TAOK1 / Fold change vs veh, TAOK1 / RFU, ACBD3 / Fold change vs veh, ACBD3 / RFU, TMA16 / Fold change vs veh, TMA16 / RFU, RWDD3 / Fold change vs veh, RWDD3 / RFU, BCAT1 / Fold change vs veh, BCAT1 / RFU, EDEM3 / Fold change vs veh, EDEM3 / RFU, TMEM33 / Fold change vs veh, TMEM33 / RFU, WDR75 / Fold change vs veh, WDR75 / RFU, AHCTF1 / Fold change vs veh, AHCTF1 / RFU, TFRC / Fold change vs veh, TFRC / RFU, ZDHHC17 / Fold change vs veh, ZDHHC17 / RFU, NOM1 / Fold change vs veh, NOM1 / RFU, ARL8B / Fold change vs veh, ARL8B / RFU, ZBTB11 / Fold change vs veh, ZBTB11 / RFU, TAMM41 / Fold change vs veh, TAMM41 / RFU, KIAA1704 /// LOC100996395 / Fold change vs veh, KIAA1704 /// LOC100996395 / RFU, ING1 / Fold change vs veh, ING1 / RFU, TRMT61B / Fold change vs veh, TRMT61B / RFU, FUBP3 / Fold change vs veh, FUBP3 / RFU, TP53 / Fold change vs veh, TP53 / RFU, TNKS2 / Fold change vs veh, TNKS2 / RFU, ZFP14 / Fold change vs veh, ZFP14 / RFU, ACTR2 / Fold change vs veh, ACTR2 / RFU, PPP3R1 / Fold change vs veh, PPP3R1 / RFU, PIK3R1 / Fold change vs veh, PIK3R1 / RFU, HNRNPA1 / Fold change vs veh, HNRNPA1 / RFU, RNF170 / Fold change vs veh, RNF170 / RFU, ZNF28 / Fold change vs veh, ZNF28 / RFU, RNGTT / Fold change vs veh, RNGTT / RFU, OGT / Fold change vs veh, OGT / RFU, BRD1 / Fold change vs veh, BRD1 / RFU, MARS / Fold change vs veh, MARS / RFU, ZNF655 / Fold change vs veh, ZNF655 / RFU, FAHD1 / Fold change vs veh, FAHD1 / RFU, BDP1 / Fold change vs veh, BDP1 / RFU, LRRCC1 / Fold change vs veh, LRRCC1 / RFU, ARID1A / Fold change vs veh, ARID1A / RFU, ZNF146 / Fold change vs veh, ZNF146 / RFU, ZNF330 / Fold change vs veh, ZNF330 / RFU, GPN3 / Fold change vs veh, GPN3 / RFU, C9orf123 / Fold change vs veh, C9orf123 / RFU, N4BP2L2 / Fold change vs veh, N4BP2L2 / RFU, ARFIP1 / Fold change vs veh, ARFIP1 / RFU, FAM179B / Fold change vs veh, FAM179B / RFU, BCL10 / Fold change vs veh, BCL10 / RFU, UHRF1BP1L / Fold change vs veh, UHRF1BP1L / RFU, BET1 / Fold change vs veh, BET1 / RFU, CNOT2 / Fold change vs veh, CNOT2 / RFU, ZNF268 / Fold change vs veh, ZNF268 / Fold change vs veh, ZNF507 / RFU, DGCR2 / Fold change vs veh, DGCR2 / RFU, WDSUB1 / Fold change vs veh, WDSUB1 / Fold change vs veh, HSP90B1 /// MIR3652 / RFU, ADSS / Fold change vs veh, ADSS / RFU, GK / Fold change vs veh, GK / RFU, ZNF148 / Fold change vs veh, ZNF148 / RFU, TAF9 / Fold change vs veh, TAF9 / RFU, SLC1A5 / Fold change vs veh, SLC1A5 / RFU, SLMO2 / Fold change vs veh, SLMO2 / RFU, ABCC4 / Fold change vs veh, ABCC4 / RFU, LOC101060439 /// RAP1B / Fold change vs veh, LOC101060439 /// RAP1B / RFU, RFX7 / Fold change vs veh, RFX7 / RFU, GTPBP10 / Fold change vs veh, GTPBP10 / RFU, CNEP1R1 / Fold change vs veh, CNEP1R1 / RFU, BIVM-ERCC5 /// ERCC5 / Fold change vs veh, BIVM-ERCC5 /// ERCC5 / RFU, ILF3 / Fold change vs veh, ILF3 / RFU 11762660_at / Fold change /veh 11762660_at / RFU VCAN (11757783_s_at) / Fold change /veh VCAN (11757783_s_at) / RFU DDX43 (11728927_at) / Fold change /veh DDX43 (11728927_at) / RFU KRT8 (11758188_x_at) / Fold change /veh KRT8 (11758188_x_at) / RFU NKD1 (11759106_at) / Fold change /veh NKD1 (11759106_at) / RFU SRD5A1 (11742802_a_at) / Fold change /veh SRD5A1 (11742802_a_at) / RFU TPSAB1 /// TPSB2 (11721975_s_at) / Fold change /veh TPSAB1 /// TPSB2 (11721975_s_at) / RFU GSTM3 (11746129_a_at) / Fold change /veh GSTM3 (11746129_a_at) / RFU IL23R (11737362_x_at) / Fold change /veh IL23R (11737362_x_at) / RFU TMEM51 (11727254_a_at) / Fold change /veh TMEM51 (11727254_a_at) / RFU PIWIL2 (11732686_x_at) / Fold change /veh PIWIL2 (11732686_x_at) / RFU ORM1 (11744905_x_at) / Fold change /veh ORM1 (11744905_x_at) / RFU CCDC152 (11743942_at) / Fold change /veh CCDC152 (11743942_at) / RFU ECM1 (11717891_a_at) / Fold change /veh ECM1 (11717891_a_at) / RFU IL23R (11748794_a_at) / Fold change /veh IL23R (11748794_a_at) / RFU TNFAIP8L3 (11732012_x_at) / Fold change /veh TNFAIP8L3 (11732012_x_at) / RFU MBOAT4 (11741988_at) / Fold change /veh MBOAT4 (11741988_at) / RFU 11764193_at / Fold change /veh 11764193_at / RFU TMEM53 (11763286_at) / Fold change /veh TMEM53 (11763286_at) / RFU MAGEB2 (11727129_at) / Fold change /veh MAGEB2 (11727129_at) / RFU TMEM200A (11744735_a_at) / Fold change /veh TMEM200A (11744735_a_at) / RFU CCDC152 (11751479_a_at) / Fold change /veh CCDC152 (11751479_a_at) / RFU FAM211A (11726209_a_at) / Fold change /veh FAM211A (11726209_a_at) / RFU RGS16 (11746705_a_at) / Fold change /veh RGS16 (11746705_a_at) / RFU VCAN (11755009_s_at) / Fold change /veh VCAN (11755009_s_at) / RFU RHOB (11743442_s_at) / Fold change /veh RHOB (11743442_s_at) / RFU RGS16 (11720943_a_at) / Fold change /veh RGS16 (11720943_a_at) / RFU RGS16 (11720944_at) / Fold change /veh RGS16 (11720944_at) / RFU, VPS4B / Fold change vs veh, VPS4B / RFU, CREB1 / Fold change vs veh, CREB1 / RFU, DNAJC13 / Fold change vs veh, DNAJC13 / RFU, GNAQ / Fold change vs veh, GNAQ / RFU, CDK5R1 / Fold change vs veh, CDK5R1 / RFU, ZRANB3 / Fold change vs veh, ZRANB3 / RFU, CUL4A / Fold change vs veh, CUL4A / RFU, CCNY / Fold change vs veh, CCNY / RFU, UFL1 / Fold change vs veh, UFL1 / RFU, COG3 / Fold change vs veh, COG3 / RFU, DIAPH2 / Fold change vs veh, DIAPH2 / RFU, SKA2 / Fold change vs veh, SKA2 / RFU, AFF3 / Fold change vs veh, AFF3 / RFU, LMF1 / Fold change vs veh, LMF1 / RFU, IPO11 / Fold change vs veh, IPO11 / RFU, DFFB / Fold change vs veh, DFFB / RFU, FOXP1 / Fold change vs veh, FOXP1 / RFU, CARD8 / Fold change vs veh, CARD8 / RFU, STRN3 / Fold change vs veh, STRN3 / RFU, ADK / Fold change vs veh, ADK / RFU, RASSF2 / Fold change vs veh, RASSF2 / RFU, WIPF1 / Fold change vs veh, WIPF1 / RFU, LARP1B / Fold change vs veh, LARP1B / RFU, RASA1 / Fold change vs veh, RASA1 / RFU, RB1 / Fold change vs veh, RB1 / RFU, PPFIA1 / Fold change vs veh, PPFIA1 / RFU, MAT2A / Fold change vs veh, MAT2A / RFU, CCT5 / Fold change vs veh, CCT5 / RFU, WDR92 / Fold change vs veh, WDR92 / RFU, CUX1 / Fold change vs veh, CUX1 / RFU, TTC7A / Fold change vs veh, TTC7A / RFU, TMEM135 / Fold change vs veh, TMEM135 / RFU, DEPTOR / Fold change vs veh, DEPTOR / RFU, CPM / Fold change vs veh, CPM / RFU, DNAJB6 / Fold change vs veh, DNAJB6 / RFU, CACNA2D3 / Fold change vs veh, CACNA2D3 / RFU, DTX4 / Fold change vs veh, DTX4 / RFU, TFCP2 / Fold change vs veh, TFCP2 / RFU, GMCL1 /// GMCL1P1 / Fold change vs veh, GMCL1 /// GMCL1P1 / RFU, AEBP2 / Fold change vs veh, AEBP2 / RFU, SNHG1 /// SNORD22 /// SNORD25 /// SNORD26 /// SNORD27 /// SNORD28 /// SNORD29 /// SNORD31 / Fold change vs veh, SNHG1 /// SNORD22 /// SNORD25 /// SNORD26 /// SNORD27 /// SNORD28 /// SNORD29 /// SNORD31 / Fold change (Aza/veh), C12orf56 (ProbeSet 11735607_a_at) / Fold change (ACY-1035/veh), C12orf56 (ProbeSet 11735607_a_at) / Fold change (Aza/veh), FGFR1OP (ProbeSet 11751329_s_at) / Fold change (ACY-1035/veh), FGFR1OP (ProbeSet 11751329_s_at) / Fold change (Aza/veh), VPS36 (ProbeSet 11739960_a_at) / Fold change (ACY-1035/veh), VPS36 (ProbeSet 11739960_a_at) / RFU SYPL1 (11715823_x_at) / Fold change /veh SYPL1 (11715823_x_at) / RFU IGFBP7 (11715501_s_at) / Fold change /veh IGFBP7 (11715501_s_at) / RFU REEP3 (11722064_at) / Fold change /veh REEP3 (11722064_at) / RFU IGLL1 (11728026_x_at) / Fold change /veh IGLL1 (11728026_x_at): dose or concentration left out as unconfirmed
Conditions: ProbeSet 11729173_a_at; LIST D

Nc1ncn([C@@H]2O[C@H](CO)[C@@H](O)[C@H]2O)c(=O)n1 [azacitidine]
Fold change vs veh, SKA2: 0.81
